Results from patent publication US11214803B2, “Modulators of YAP1 expression” (Ionis Pharmaceuticals, Inc., priority 2019, dated 2022).
Marks after values point to notes of the source that are not given here. Strand notation (5' to 3'): a small letter for the sugar, then the base; units joined by * are phosphorothioate-linked, units joined directly phosphodiester-linked; [ ] holds rarer units or linkages, { } end groups; capitals alone tell only the bases. k = constrained ethyl (cEt); [5mC] = 5-methylcytosine; d = 2'-deoxy (DNA)

What follows are substances tested on Yap1 mRNA (assay: Antisense inhibition of human Yap1 in A-431 cells by cEt gapmers, single dose (Example 4, RTS4814)). Settings: Table 14; A-431 cells, 5,000 cells per well, free uptake, 2,000 nM, approximately 48 hours; RTS4814; normalized to RIBOGREEN; Yap1 mRNA relative to untreated control; * = targets amplicon region of primer probe set.
Assay type: cell-based
Method: Modified oligonucleotides were designed to target a Yap1 nucleic acid and were tested for their effect on Yap1 mRNA level in vitro. The modified oligonucleotides were tested in a series of experiments that had similar culture conditions. Cultured A-431 cells at a density of 5,000 cells per well were treated using free uptake with 2,000 nM of modified oligonucleotide. After a treatment period of approximately 48 hours, RNA was isolated from the cells and Yap1 mRNA levels were measured by quantitative real-time RTPCR. Human primer probe set RTS4814 was used to measure mRNA levels. Yap1 mRNA levels were normalized to total RNA content, as measured by RIBOGREEN®. Results are presented in the tables below as percent control of the amount of Yap1 mRNA relative to untreated control cells (% UTC). The modified oligonucleotides with percent control values marked with an asterisk (*) target the amplicon region of the primer probe set. Additional assays may be used to measure the potency and efficacy of the modified oligonucleotides targeting the amplicon region.
The newly designed modified oligonucleotides in the Tables below were designed as 3-10-3 cEt gapmers. The gapmers are 16 nucleosides in length, wherein the central gap segment comprises of ten 2′-deoxynucleosides and is flanked by wing segments on the 5′ direction and the 3′ direction comprising three nucleosides each. Each nucleoside in the 5′ wing segment and each nucleoside in the 3′ wing segment has a cEt sugar modification. The internucleoside linkages throughout each gapmer are phosphorothioate (P═S) linkages. All cytosine residues throughout each gapmer are 5-methylcytosines.
“Start site” indicates the 5′-most nucleoside to which the gapmer is targeted in the human gene sequence. “Stop site” indicates the 3′-most nucleoside to which the gapmer is targeted human gene sequence. […] Activity of the modified oligonucleotide may be defined in a different experiment.

In order of rising “YAP1 (% UTC)” value:
1. 1074368 (antisense kG*kA*kT*dA*dG*dT*dA*dT*d[5mC]*dA*d[5mC]*d[5mC]*dT*kG*kT*kA) [Compound 1074368]  8 % UTC
2. 1074400 (antisense kG*kA*kT*dT*dT*dA*dG*dA*dA*dT*dT*d[5mC]*dA*kG*kT*k[5mC]) [Compound 1074400]  42 % UTC
3. 1074496 (kA*kA*kT*dA*dA*d[5mC]*d[5mC]*dA*dT*d[5mC]*d[5mC]*d[5mC]*dA*kA*kG*k[5mC]; antisense) [Compound 1074496]  69 % UTC
4. 1074336 (antisense k[5mC]*k[5mC]*kA*dG*dT*dG*dT*dT*dG*dG*dT*dA*dA*k[5mC]*kT*kG) [Compound 1074336]  97 % UTC
5. 1074304 (antisense k[5mC]*kT*kG*d[5mC]*d[5mC]*dG*dA*dA*dG*d[5mC]*dA*dG*dT*kT*k[5mC]*kT) [Compound 1074304]  109 % UTC

In the case of “1074432 (antisense kG*kT*kT*dA*dA*dA*dA*dT*dG*dA*dT*dT*dG*kG*kT*kG) [Compound 1074432]”, the “YAP1 (% UTC)” value is reported as 3* % UTC.

Same assay, conditions: Table 15; A-431 cells, 5,000 cells per well, free uptake, 2,000 nM, approximately 48 hours; RTS4814; normalized to RIBOGREEN; Yap1 mRNA relative to untreated control; * = targets amplicon region of primer probe set

In order of rising “YAP1 (% UTC)” value:
1. 1074337 (antisense kG*kA*kG*dT*d[5mC]*d[5mC]*d[5mC]*dA*d[5mC]*d[5mC]*dA*dT*d[5mC]*k[5mC]*kT*kG) [Compound 1074337]  10 % UTC
2. 1074401 (antisense kT*k[5mC]*k[5mC]*dG*dG*dT*dG*d[5mC]*dA*dT*dG*dT*dG*kT*k[5mC]*kT) [Compound 1074401]  18 % UTC
3. 1074369 (antisense kT*kG*kA*dT*dA*dG*dT*dA*dT*d[5mC]*dA*d[5mC]*d[5mC]*kT*kG*kT) [Compound 1074369]  19 % UTC
4. 1074465 (kA*kA*kT*d[5mC]*dT*dA*dT*dA*dT*dT*dA*dG*dA*kG*kT*kA; antisense) [Compound 1074465]  44 % UTC
5. 1074305 (antisense k[5mC]*kA*k[5mC]*d[5mC]*dT*dG*d[5mC]*d[5mC]*dG*dA*dA*dG*d[5mC]*kA*kG*kT) [Compound 1074305]  64 % UTC

With “1074433 (antisense kA*kA*kG*dT*d[5mC]*dT*dG*dA*dG*dT*dA*dT*dT*kT*kA*kG) [Compound 1074433]” the “YAP1 (% UTC)” value was 5* % UTC.

Same assay, conditions: Table 16; A-431 cells, 5,000 cells per well, free uptake, 2,000 nM, approximately 48 hours; RTS4814; normalized to RIBOGREEN; Yap1 mRNA relative to untreated control cells

In order of rising “YAP1 (% UTC)” value:
1. 1074370 (antisense kT*kT*kG*dA*dT*dA*dG*dT*dA*dT*d[5mC]*dA*d[5mC]*k[5mC]*kT*kG) [Compound 1074370]  8 % UTC
2. 1074402 (antisense kT*kT*kA*dT*dG*dG*dA*dA*dA*dT*dT*dT*d[5mC]*k[5mC]*kG*kG) [Compound 1074402]  25 % UTC
3. 1074466 (kA*k[5mC]*k[5mC]*dG*dA*d[5mC]*d[5mC]*d[5mC]*dT*dG*d[5mC]*d[5mC]*dA*kA*kA*kA; antisense) [Compound 1074466]  32 % UTC
4. 1074338 (antisense kG*kG*kA*dT*dT*dT*dT*dG*dA*dG*dT*d[5mC]*d[5mC]*k[5mC]*kA*k[5mC]) [Compound 1074338]  77 % UTC
5. 1074306 (antisense k[5mC]*k[5mC]*kT*d[5mC]*dA*d[5mC]*d[5mC]*dT*dG*d[5mC]*d[5mC]*dG*dA*kA*kG*k[5mC]) [Compound 1074306]  107 % UTC

For “1074434 (antisense kA*k[5mC]*kT*dT*d[5mC]*dT*dA*dA*dG*dT*d[5mC]*dT*dG*kA*kG*kT) [Compound 1074434]”, the “YAP1 (% UTC)” value was 51* % UTC.

Same assay, conditions: Table 17; A-431 cells, 5,000 cells per well, free uptake, 2,000 nM, approximately 48 hours; RTS4814; normalized to RIBOGREEN; Yap1 mRNA relative to untreated control cells

In order of falling “YAP1 (% UTC)” value:
1. 1074307 (antisense kG*kT*kG*dG*d[5mC]*d[5mC]*dT*d[5mC]*dA*d[5mC]*d[5mC]*dT*dG*k[5mC]*k[5mC]*kG) [Compound 1074307]  105 % UTC
2. 1074275 (antisense k[5mC]*kA*kA*dG*dA*dG*dG*dT*dG*dG*dT*d[5mC]*dT*kT*kG*kT) [Compound 1074275]  73 % UTC
3. 1074339 (antisense kA*k[5mC]*kT*dG*dG*dA*dT*dT*dT*dT*dG*dA*dG*kT*k[5mC]*k[5mC]) [Compound 1074339]  31 % UTC
4. 1074371 (antisense kG*kT*kT*dG*dA*dT*dA*dG*dT*dA*dT*d[5mC]*dA*k[5mC]*k[5mC]*kT) [Compound 1074371]  31 % UTC
5. 1074467 (k[5mC]*kA*k[5mC]*d[5mC]*dG*dA*d[5mC]*d[5mC]*d[5mC]*dT*dG*d[5mC]*d[5mC]*kA*kA*kA; antisense) [Compound 1074467]  31 % UTC
6. 1074403 (antisense kG*k[5mC]*kT*dT*dA*dT*dG*dG*dA*dA*dA*dT*dT*kT*k[5mC]*k[5mC]) [Compound 1074403]  9 % UTC

With “1074435 (kG*kA*k[5mC]*dT*dT*d[5mC]*dT*dA*dA*dG*dT*d[5mC]*dT*kG*kA*kG; antisense) [Compound 1074435]” the “YAP1 (% UTC)” value was 19* % UTC.

Same assay, conditions: Yap1 mRNA remaining as percent of untreated control; 3-10-3 cEt gapmers; A-431 cells; Table 36

In order of rising “YAP1 (% UTC)” value:
1. 1074358 (antisense kT*k[5mC]*kG*dA*dG*dG*dG*dA*d[5mC]*dA*d[5mC]*dT*dG*kT*kA*kG) [compound 1074358]  17 % UTC
2. 1074326 (antisense kA*k[5mC]*kG*d[5mC]*dA*dG*dG*dG*d[5mC]*dT*dA*dA*d[5mC]*kT*k[5mC]*k[5mC]) [compound 1074326]  36 % UTC
3. 1074390 (k[5mC]*kT*kG*d[5mC]*dA*dG*dA*d[5mC]*dT*dT*dG*dG*d[5mC]*kA*kT*k[5mC]; antisense) [compound 1074390]  64 % UTC
4. 1074294 (antisense kT*kT*kG*dG*dA*dG*dT*dT*dG*d[5mC]*dT*dG*d[5mC]*k[5mC]*kA*k[5mC]) [compound 1074294]  80 % UTC

In the case of “1074422 (kA*kA*kA*d[5mC]*dA*dG*dG*d[5mC]*dT*d[5mC]*dA*d[5mC]*dT*kT*k[5mC]*k[5mC]; antisense) [compound 1074422]”, the “YAP1 (% UTC)” value is reported as 9* % UTC.

Same assay, conditions: Yap1 mRNA remaining as percent of untreated control; 3-10-3 cEt gapmers; A-431 cells; Table 37

In order of falling “YAP1 (% UTC)” value:
1. 1074455 (k[5mC]*kA*kT*dT*dA*dT*dG*dT*dG*dA*d[5mC]*dT*dA*kA*kT*kG; antisense) [compound 1074455]  67 % UTC
2. 1074327 (antisense kT*kA*k[5mC]*dG*d[5mC]*dA*dG*dG*dG*d[5mC]*dT*dA*dA*k[5mC]*kT*k[5mC]) [compound 1074327]  39 % UTC
3. 1074359 (antisense kT*kT*k[5mC]*dG*dA*dG*dG*dG*dA*d[5mC]*dA*d[5mC]*dT*kG*kT*kA) [compound 1074359]  18 % UTC
4. 1074295 (antisense kT*kG*kG*dT*dT*dG*dG*dA*dG*dT*dT*dG*d[5mC]*kT*kG*k[5mC]) [compound 1074295]  15 % UTC
5. 1074391 (kG*kT*k[5mC]*dA*dG*dA*dA*d[5mC]*dT*d[5mC]*dA*dA*dA*kG*k[5mC]*kT; antisense) [compound 1074391]  14 % UTC

With “1074423 (k[5mC]*kA*kA*dA*d[5mC]*dA*dG*dG*d[5mC]*dT*d[5mC]*dA*d[5mC]*kT*kT*k[5mC]; antisense) [compound 1074423]” the “YAP1 (% UTC)” value was 4* % UTC.
